Laboratory results reported in US8084467B2, “Pyrazole derivatives as cannabinoid receptor antagonists” (University of Connecticut, priority 2004, dated 2011).
Where “and” joins values, the source holds several entries; their conditions need not be identical. Equal entries are not always repeated. Where two headings read alike, the source gives them in different places.

What was measured:
CB2 receptor = biological target: T1, CB2 receptor (Mus musculus, UniProt P47936); experiment: CB2 receptor binding, mouse spleen membranes, same manner as the CB1 binding assay; conditions: for Ki: [3H] CP-55,940; for selectivity CB2: ratio of CB1 Ki to CB2 Ki
T1 construct: membranes were prepared from frozen mouse spleen; from tissue; host or cells: mouse spleen
T1 sequence (P47936 whole entry): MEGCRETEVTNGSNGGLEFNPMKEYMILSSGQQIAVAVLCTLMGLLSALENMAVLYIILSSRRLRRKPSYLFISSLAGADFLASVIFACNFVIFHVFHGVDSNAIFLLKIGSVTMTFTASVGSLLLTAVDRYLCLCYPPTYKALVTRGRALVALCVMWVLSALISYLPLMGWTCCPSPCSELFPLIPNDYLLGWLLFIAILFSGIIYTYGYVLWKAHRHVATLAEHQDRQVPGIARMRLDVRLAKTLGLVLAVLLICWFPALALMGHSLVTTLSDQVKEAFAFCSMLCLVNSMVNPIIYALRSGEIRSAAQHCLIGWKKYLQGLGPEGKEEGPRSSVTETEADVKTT
Protocol: Some of the inventive analogs were tested for CB2 receptor binding affinity and for CB1 receptor affinity (to determine selectivity). […] The lower the Ki value the higher the binding affinity.
(§1) The treated membranes were subsequently used in the binding assay described below. Approximately 30 μg of membranes were incubated in silanized 96-well microtiter plate with TME containing 0.1% essentially fatty acid-free bovine serum albumin (BSA), 0.8 nM [^3H] […] Radioactivity was detected using MicroScint 20 scintillation cocktail added directly to the dried filterplates, and the filterplates were counted using a Packard Instruments Top-Count. […] Data collected from three independent experiments performed with duplicate determinations was normalized between 100% and 0% specific binding for [^3H] […] The normalized data was analyzed using a 4-parameter nonlinear logistic equation to yield IC50 values.
Silanized centrifuge tubes were used throughout to minimize receptor loss due to adsorption. The CB2 binding assay was conducted in the same manner as for the CB1 binding assay. The binding affinities (Ki) were also expressed in nanomoles (nM).

rats = experiment: Food-reinforced lever pressing in trained rats; format: in vivo, rat; conditions: IP, various dosages, tested ten minutes after injection, FIG. 1, p<0.05
Protocol: 11 rats were trained to press a lever five times to receive a 45 mg food pellet. The training continued over a time period of several weeks. After the training period all rats received drug treatments once per week. The specific rat receiving a drug treatment and the dosage given were each randomly varied. The treatments comprised administration of a vehicle control solution or various dosages of inventive compound 1-5 in combination with the vehicle control solution. All injections were given IP. Ten minutes after injection the rat was placed in proximity to the lever.
FIG. 1 illustrates a mean (±SEM) number of lever presses in 30 min for treated animals. […] FIG. 1 illustrates a classic dose response curve wherein as the dose of drug (inventive compound 1-5) increases, lever pressing consistently decreases. Without wishing to be bound to any theory, applicants believe that inventive compound 1-5 antagonizes (blocks) the CB1 receptors, thereby suppressing appetite and leading to decreased lever pressing.

CB1 cannabinoid receptor = biological target: T2, CB1 cannabinoid receptor (Rattus norvegicus, UniProt P20272); experiment: CB1 receptor binding, rat forebrain membranes, [3H] CP-55,940 displacement; conditions: for Ki: 0.8 nM [3H] CP-55,940
T2 construct: membranes were prepared from rat forebrain membranes; from tissue; host or cells: rat forebrain
T2 sequence (P20272 whole entry): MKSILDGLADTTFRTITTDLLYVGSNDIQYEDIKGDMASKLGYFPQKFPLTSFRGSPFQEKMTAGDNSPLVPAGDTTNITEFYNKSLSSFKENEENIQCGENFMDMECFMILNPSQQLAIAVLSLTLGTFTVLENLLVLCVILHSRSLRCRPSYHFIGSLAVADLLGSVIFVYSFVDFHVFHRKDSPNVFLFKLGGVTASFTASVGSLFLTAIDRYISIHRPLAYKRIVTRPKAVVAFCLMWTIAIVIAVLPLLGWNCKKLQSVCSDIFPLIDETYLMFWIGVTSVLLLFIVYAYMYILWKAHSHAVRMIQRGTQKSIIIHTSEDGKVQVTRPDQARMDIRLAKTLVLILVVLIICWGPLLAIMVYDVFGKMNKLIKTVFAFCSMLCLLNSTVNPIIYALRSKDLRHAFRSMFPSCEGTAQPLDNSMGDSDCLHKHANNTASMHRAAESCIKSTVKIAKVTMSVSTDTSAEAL
Protocol: Some of the inventive analogs were tested for CB2 receptor binding affinity and for CB1 receptor affinity (to determine selectivity). […] The lower the Ki value the higher the binding affinity. […]
Membranes, previously frozen at −80° C., were thawed on ice. To the stirred suspension was added three volumes of TME (25 mM Tris-HCl buffer, 5 mM MgCl2 and 1 mM EDTA) at a pH 7.4. The suspension was incubated at 4° C. for 30 min. At the end of the incubation, the membranes were pelleted and washed three times with TME.
as §1

[1] = mouse spleen membranes, read-out: affinities Ki CB2
[2] = rat forebrain membranes, read-out: affinities Ki CB1
[3] = affinities Ki CB2, mouse spleen membranes
[4] = affinities Ki CB1, rat forebrain membranes

O=C(NN1CCCCC1)c1nn(-c2ccc(Cl)cc2Cl)c(-c2ccc(-c3cccnc3)cc2)c1CO [Compound 1-5]
Ki (CB2 receptor; [1]): 2310 nM | suppression of food-reinforced lever pressing (number of lever presses in 30 min) (rats): suppression of food-reinforced lever pressing was statistically significant | Ki (CB1 cannabinoid receptor; [2]): 5.8 nM | selectivity CB1 (CB1 cannabinoid receptor; ratio of CB2 Ki to CB1 Ki): 398

Cc1c(NC(=O)C2CCCCC2)nn(-c2ccc(Cl)cc2Cl)c1-c1ccc(Br)cc1 [Compound 3-14]
Ki (CB2 receptor; [3]): 27100 nM | Ki (CB1 cannabinoid receptor; [2]): 4230 nM | selectivity CB1 (CB1 cannabinoid receptor; ratio of CB2 Ki to CB1 Ki): 6.4

Cc1c(C(=O)N(C)C2CCCCC2)nn(-c2ccc(Cl)cc2Cl)c1-c1ccc(-c2ccncc2)cc1 [Compound 3-6]
Ki (CB2 receptor; [1]): 3290 nM | Ki (CB1 cannabinoid receptor; [2]): 189 nM | selectivity CB1 (CB1 cannabinoid receptor; ratio of CB2 Ki to CB1 Ki): 17.4

N#Cc1ccc(-c2c(CO)c(C(=O)NN3CCCCC3)nn2-c2ccc(Cl)cc2Cl)cc1 [Compound 3-22]
Ki (CB2 receptor; [1]): 2740 nM | Ki (CB1 cannabinoid receptor; [2]): 64 nM | selectivity CB1 (CB1 cannabinoid receptor; ratio of CB2 Ki to CB1 Ki): 42.8

Cc1c(C(=O)Nc2ccc3ccccc3c2)nn(CCCCCCl)c1-c1ccccc1 [Compound 4-3]
Ki (CB2 receptor; [3]): 15.4 nM | Ki (CB1 cannabinoid receptor; [4]): 14.6 nM

Cc1c(C=CC23CC4CC(CC(C4)C2)C3)nn(-c2ccc(Cl)cc2Cl)c1-c1ccc(Br)cc1 [Compound 1-25]
Ki (CB2 receptor; [1]): 4010 nM | selectivity CB2 (CB2 receptor): 4.4 | Ki (CB1 cannabinoid receptor; [2]): 17700 nM

Cc1c(C(=O)NC23CC4CC(CC(C4)C2)C3)nn(CCCCCI)c1-c1ccccc1 [Compound 4-10]
Ki (CB2 receptor; [3]): 1.01 nM and 1 nM | selectivity CB2 (CB2 receptor): 1.3 | Ki (CB1 cannabinoid receptor; [4]): 1.34 nM and 1.3 nM

O=C(Nc1nn(-c2ccc(Cl)cc2Cl)c(-c2ccc(Br)cc2)c1CBr)NC1CCCCC1 [Compound 3-7]
Ki (CB2 receptor; [1]): 136 nM | Ki (CB1 cannabinoid receptor; [2]): 38 nM | selectivity CB1 (CB1 cannabinoid receptor; ratio of CB2 Ki to CB1 Ki): 3.6

CN(C(=O)c1nn(-c2ccc(Cl)cc2Cl)c(-c2ccc(Br)cc2)c1CO)C1CCCCC1 [Compound 3-1]
Ki (CB2 receptor; [1]): 1800 nM | Ki (CB1 cannabinoid receptor; [2]): 29 nM | selectivity CB1 (CB1 cannabinoid receptor; ratio of CB2 Ki to CB1 Ki): 62.1

COCc1c(C(=O)NC23CC4CC(CC(C4)C2)C3)nn(-c2ccc(Cl)cc2Cl)c1-c1ccc(Br)cc1 [Compound 1-7]
Ki (CB2 receptor; [1]): 1680 nM | selectivity CB1 (CB1 cannabinoid receptor): 32 | Ki (CB1 cannabinoid receptor; [2]): 53 nM

CN(C(=O)c1nn(-c2ccc(Cl)cc2Cl)c(-c2ccc(-c3ccncc3)cc2)c1CO)C1CCCCC1 [Compound 3-5]
Ki (CB2 receptor; [1]): 294 nM | Ki (CB1 cannabinoid receptor; [2]): 90 nM | selectivity CB1 (CB1 cannabinoid receptor; ratio of CB2 Ki to CB1 Ki): 3.3

Cc1c(C(=O)N(C)C2CCCCC2)nn(-c2ccc(Cl)cc2Cl)c1-c1ccc(C#N)cc1 [Compound 3-15]
Ki (CB2 receptor; [1]): 10800 nM | Ki (CB1 cannabinoid receptor; [2]): 50 nM | selectivity CB1 (CB1 cannabinoid receptor; ratio of CB2 Ki to CB1 Ki): 216.5

COCc1c(C(=O)NC2CCCCC2)nn(-c2ccc(Cl)cc2Cl)c1-c1ccc(-c2cccnc2)cc1 [Compound 1-18]
Ki (CB2 receptor; [1]): 646 nM | Ki (CB1 cannabinoid receptor; [2]): 62 nM | selectivity CB1 (CB1 cannabinoid receptor; ratio of CB2 Ki to CB1 Ki): 10.4

Cc1c(C(=O)NN2CCCCC2)nn(-c2ccc(Cl)cc2Cl)c1-c1ccc(C(=O)O)cc1 [Compound 3-24]
Ki (CB2 receptor; [1]): 934 nM | Ki (CB1 cannabinoid receptor; [2]): 738 nM | selectivity CB1 (CB1 cannabinoid receptor; ratio of CB2 Ki to CB1 Ki): 1.3

Cc1c(C(=O)NC2CC3CCC2(C)C3(C)C)nn(CCCCCCl)c1-c1ccccc1 (stereo not drawn) [Compound 4-1]
Ki (CB2 receptor; [3]): 2.51 nM and 2.5 nM | selectivity CB2 (CB2 receptor): 2.4 | Ki (CB1 cannabinoid receptor; [4]): 5.9 nM and 6 nM

Cc1c(C(=O)NN2CCCCC2)nn(-c2ccc(Cl)cc2Cl)c1-c1ccc(-c2ccccc2Cl)cc1 [Compound 1-3]
Ki (CB2 receptor; [1]): 1370 nM | Ki (CB1 cannabinoid receptor; [2]): 85.1 nM | selectivity CB1 (CB1 cannabinoid receptor; ratio of CB2 Ki to CB1 Ki): 16

Cn1nnnc1-c1ccc(-c2c(CO)c(C(=O)NN3CCCCC3)nn2-c2ccc(Cl)cc2Cl)cc1 [Compound 2-5]
Ki (CB2 receptor; [1]): 2130 nM | Ki (CB1 cannabinoid receptor; [2]): 203 nM | selectivity CB1 (CB1 cannabinoid receptor; ratio of CB2 Ki to CB1 Ki): 10.5

Cc1c(C(=O)NC2CCCCC2)nn(-c2ccc(Cl)cc2Cl)c1-c1ccc(-c2nnn(C)n2)cc1 [Compound 2-9]
Ki (CB2 receptor; [1]): 381 nM | Ki (CB1 cannabinoid receptor; [2]): 20 nM | selectivity CB1 (CB1 cannabinoid receptor; ratio of CB2 Ki to CB1 Ki): 19
